Structures are written as SMILES.

This assay deals with beta-TC6 cells. Briefly: Insulin HTRF assay, relative activity Ar normalized to sunitinib. In kind it is cell-based. To be noted: Mus musculus, normalized to positive control sunitinib (5 µM = 100%), Table 10. The procedure, abridged:
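beta-TC6 cells (15k/well) were seeded for 24 or 48 h, washed and exposed to test compound or sunitinib (5 µM f.c.) in induction buffer with 0.5% DMSO for 2, 3 or 4 h at 37°C. Secreted insulin in the supernatant was measured by two-antibody HTRF after 120 min at RT. Ar = (V − 0% control)/(100% control − 0% control) × 100.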
Regarding `O=C(O)CCc1ccc(-c2cnc3cnc(-c4ccccc4CO)cn23)cc1` [compound 333, 3-[4-[6-[2-(hydroxymethyl)phenyl]imidazo[1,2-a]pyrazin-3-yl]phenyl]propanoic acid], the maximum response (Emax) was in the range of 20 to 50%.
To `Cc1cccc(-c2cn3c(-c4ccc(CCC(=O)O)cc4)cnc3cn2)c1C` [compound 334, 3-[4-[6-(2,3-dimethylphenyl)imidazo[1,2-a]pyrazin-3-yl]phenyl]propanoic acid] belongs 50 to 100%.
To `N#Cc1ccc(-c2cnc3cnc(-c4ccccc4)cn23)cc1` [compound 335, 4-(6-phenylimidazo[1,2-a]pyrazin-3-yl)benzonitrile] belongs 20 to 50%; to `N#Cc1ccc(-c2cnc3cnc(-c4ccsc4)cn23)cc1` [compound 336, 4-[6-(3-thienyl)imidazo[1,2-a]pyrazin-3-yl]benzonitrile], 20 to 50%.
Next, `N#Cc1ccc(-c2cnc3cnc(-c4ccc(Cl)cc4)cn23)cc1` [compound 337, 4-[6-(4-chlorophenyl)imidazo[1,2-a]pyrazin-3-yl]benzonitrile]: 50 to 100%.
`N#Cc1ccc(-c2cnc3cnc(-c4ccc(CO)cc4)cn23)cc1` [compound 338, 4-[6-[4-(hydroxymethyl)phenyl]imidazo[1,2-a]pyrazin-3-yl]benzonitrile] displayed a maximal response (Emax) of 20 to 50%.
Turning to `N#Cc1ccc(-c2cnc3cnc(-c4cccs4)cn23)cc1` [compound 339, 4-[6-(2-thienyl)imidazo[1,2-a]pyrazin-3-yl]benzonitrile], the Emax lay within 20 to 50%.
To `COc1cc(-c2cnc3cnc(-c4ccc(N5CCN(C)CC5)nc4)cn23)cc(OC)c1OC` [compound 340, 6-[6-(4-methylpiperazin-1-yl)-3-pyridyl]-3-(3,4,5-trimethoxyphenyl)imidazo[1,2-a]pyrazine] belongs 20 to 50%; to `CN(C)c1cccc(-c2cnc3cnc(-c4ccncc4)cn23)c1` [compound 342, N,N-dimethyl-3-[6-(4-pyridyl)imidazo[1,2-a]pyrazin-3-yl]aniline], 20 to 50%.
To `CN(C)c1cccc(-c2cnc3cnc(-c4ccsc4)cn23)c1` [compound 343, N,N-dimethyl-3-[6-(3-thienyl)imidazo[1,2-a]pyrazin-3-yl]aniline] belongs 50 to 100%; to `CN(C)c1cccc(-c2cnc3cnc(-c4ccc(CO)cc4)cn23)c1` [compound 344, [4-[3-[3-(dimethylamino)phenyl]imidazo[1,2-a]pyrazin-6-yl]phenyl]methanol], 20 to 50%; to `CN(C)c1cccc(-c2cnc3cnc(-c4cccs4)cn23)c1` [compound 345, N,N-dimethyl-3-[6-(2-thienyl)imidazo[1,2-a]pyrazin-3-yl]aniline], 20 to 50%.
As for `COc1cc(OC)cc(-c2cn3c(-c4cccc(N(C)C)c4)cnc3cn2)c1` [compound 346, 3-[6-(3,5-dimethoxyphenyl)imidazo[1,2-a]pyrazin-3-yl]-N,N-dimethyl-aniline], the maximum response (Emax) lay within 20 to 50%.
`Clc1ccc(-c2cnc3cnc(-c4ccncc4)cn23)cc1` [compound 347, 3-(4-chlorophenyl)-6-(4-pyridyl)imidazo[1,2-a]pyrazine] gave an Emax of 20 to 50%.
`Clc1ccc(-c2cnc3cnc(-c4ccsc4)cn23)cc1` [compound 348, 3-(4-chlorophenyl)-6-(3-thienyl)imidazo[1,2-a]pyrazine] showed an Emax of 50 to 100%.
`Clc1ccc(-c2cnc3cnc(-c4cccs4)cn23)cc1` [compound 349, 3-(4-chlorophenyl)-6-(2-thienyl)imidazo[1,2-a]pyrazine] yielded an Emax of 20 to 50%.
`CC(=O)Nc1cccc(-c2cn3c(-c4ccc(F)c(Cl)c4)cnc3cn2)c1` [compound 350, N-[3-[3-(3-chloro-4-fluoro-phenyl)imidazo[1,2-a]pyrazin-6-yl]phenyl]acetamide] gave an Emax of 20 to 50%.
`Fc1ccc(-c2cnc3cnc(-c4ccco4)cn23)cc1Cl` [compound 351, 3-(3-chloro-4-fluoro-phenyl)-6-(2-furyl)imidazo[1,2-a]pyrazine] showed an Emax of 20 to 50%.
Next, `FC(F)(F)Oc1cccc(-c2cnc3cnc(-c4cccnc4)cn23)c1` [compound 352, 6-(3-pyridyl)-3-[3-(trifluoromethoxy)phenyl]imidazo[1,2-a]pyrazine]: 20 to 50%; `O=C(NCCO)c1cccc(-c2cn3c(-c4cccc(OC(F)(F)F)c4)cnc3cn2)c1` [compound 353, N-(2-hydroxyethyl)-3-[3-[3-(trifluoromethoxy)phenyl]imidazo[1,2-a]pyrazin-6-yl]benzamide]: 20 to 50%.
Next, `CN1CCN(C(=O)c2cccc(-c3cnc4cnc(-c5ccc6c(c5)OCO6)cn34)c2)CC1` [compound 355, [3-[6-(1,3-benzodioxol-5-yl)imidazo[1,2-a]pyrazin-3-yl]phenyl]-(4-methylpiperazin-1-yl)methanone]: 20 to 50%; `CN1CCN(C(=O)c2cccc(-c3cnc4cnc(-c5ccc6c(ccn6C)c5)cn34)c2)CC1` [compound 358, [3-[6-(1-methylindol-5-yl)imidazo[1,2-a]pyrazin-3-yl]phenyl]-(4-methylpiperazin-1-yl)methanone]: 20 to 50%.
On to `CN1CCN(C(=O)c2cccc(-c3cnc4cnc(-c5ccc(CNc6ccccc6)cc5)cn34)c2)CC1` [compound 359, [3-[6-[4-(anilinomethyl)phenyl]imidazo[1,2-a]pyrazin-3-yl]phenyl]-(4-methylpiperazin-1-yl)methanone], for which the maximal effect (Emax) was 10 to 20%.
Consider `OCc1ccc(-c2cn3c(-c4cccc(Cl)c4)cnc3cn2)cc1` [compound 360, [4-[3-(3-chlorophenyl)imidazo[1,2-a]pyrazin-6-yl]phenyl]methanol], for which the maximum response (Emax) fell in the range of 20 to 50%.
Next, `COc1ccc(-c2cnc3cnc(-c4ccc(CO)cc4)cn23)cc1` [compound 361, [4-[3-(4-methoxyphenyl)imidazo[1,2-a]pyrazin-6-yl]phenyl]methanol]: 50 to 100%; `COc1ccc(-c2cnc3cnc(-c4cccs4)cn23)cc1` [compound 362, 3-(4-methoxyphenyl)-6-(2-thienyl)imidazo[1,2-a]pyrazine]: 20 to 50%.
To `COc1ccc(-c2cnc3cnc(-c4ccc(N)nc4)cn23)cc1` [compound 363, 5-[3-(4-methoxyphenyl)imidazo[1,2-a]pyrazin-6-yl]pyridin-2-amine] belongs 20 to 50%; to `Oc1cccc(-c2cnc3cnc(-c4cc5ccccc5s4)cn23)c1` [compound 364, 3-[6-(benzothiophen-2-yl)imidazo[1,2-a]pyrazin-3-yl]phenol], 50 to 100%; to `Oc1cccc(-c2cnc3cnc(-c4ccc(Cl)cc4)cn23)c1` [compound 365, 3-[6-(4-chlorophenyl)imidazo[1,2-a]pyrazin-3-yl]phenol], 20 to 50%.
Next, `Oc1cccc(-c2cnc3cnc(/C=C/c4ccccc4)cn23)c1` [compound 366, 3-[6-[(E)-styryl]imidazo[1,2-a]pyrazin-3-yl]phenol]: 20 to 50%.
As for `CN1CCN(c2ccc(-c3cn4c(-c5cccc(O)c5)cnc4cn3)cc2)CC1` [compound 367, 3-[6-[4-(4-methylpiperazin-1-yl)phenyl]imidazo[1,2-a]pyrazin-3-yl]phenol], the maximum response (Emax) is 20 to 50%.
Next, `Oc1cccc(-c2cnc3cnc(-c4cccc(Cl)c4)cn23)c1` [compound 368, 3-[6-(3-chlorophenyl)imidazo[1,2-a]pyrazin-3-yl]phenol]: 20 to 50%; `COc1ccc(-c2cn3c(-c4cccc(O)c4)cnc3cn2)cn1` [compound 369, 3-[6-(6-methoxy-3-pyridyl)imidazo[1,2-a]pyrazin-3-yl]phenol]: 20 to 50%; `Oc1cccc(-c2cnc3cnc(-c4cccs4)cn23)c1` [compound 370, 3-[6-(2-thienyl)imidazo[1,2-a]pyrazin-3-yl]phenol]: 20 to 50%.
To `COc1cc(OC)cc(-c2cn3c(-c4cccc(O)c4)cnc3cn2)c1` [compound 371, 3-[6-(3,5-dimethoxyphenyl)imidazo[1,2-a]pyrazin-3-yl]phenol] belongs 20 to 50%; to `COc1cccc(-c2cn3c(-c4cccc(O)c4)cnc3cn2)c1F` [compound 372, 3-[6-(2-fluoro-3-methoxy-phenyl)imidazo[1,2-a]pyrazin-3-yl]phenol], 20 to 50%; to `OCc1ccc(-c2cnc3cnc(-c4ccco4)cn23)cc1` [compound 373, [4-[6-(2-furyl)imidazo[1,2-a]pyrazin-3-yl]phenyl]methanol], 20 to 50%.
Next, `OCc1ccc(-c2cnc3cnc(-c4ccc(Cl)cc4Cl)cn23)cc1` [compound 374, [4-[6-(2,4-dichlorophenyl)imidazo[1,2-a]pyrazin-3-yl]phenyl]methanol]: 20 to 50%; `O=C(NC1CCCC1)c1ccc(-c2cn3c(-c4ccc(CO)cc4)cnc3cn2)cc1` [compound 375, N-cyclopentyl-4-[3-[4-(hydroxymethyl)phenyl]imidazo[1,2-a]pyrazin-6-yl]benzamide]: 20 to 50%.
`OCc1cccc(-c2cnc3cnc(-c4ccccc4)cn23)c1` [compound 376, [3-(6-phenylimidazo[1,2-a]pyrazin-3-yl)phenyl]methanol] yielded an Emax of 20 to 50%.
Next, `CSc1ccc(-c2cn3c(-c4cccc(CO)c4)cnc3cn2)cc1` [compound 377, [3-[6-(4-methylsulfanylphenyl)imidazo[1,2-a]pyrazin-3-yl]phenyl]methanol]: 20 to 50%; `CCOc1cccc(-c2cn3c(-c4cccc(CO)c4)cnc3cn2)c1` [compound 378, [3-[6-(3-ethoxyphenyl)imidazo[1,2-a]pyrazin-3-yl]phenyl]methanol]: 20 to 50%.
To `OCc1cccc(-c2cnc3cnc(-c4cccs4)cn23)c1` [compound 379, [3-[6-(2-thienyl)imidazo[1,2-a]pyrazin-3-yl]phenyl]methanol] belongs 20 to 50%.
`CC(C)Oc1cccc(-c2cn3c(-c4cccc(CO)c4)cnc3cn2)c1` [compound 380, [3-[6-(3-isopropoxyphenyl)imidazo[1,2-a]pyrazin-3-yl]phenyl]methanol] registered an Emax of 20 to 50%.

The record behind these values is patent EP2818471A1, “Nitrogen bicyclic compounds as inhibitors for Scyl1 and Grk5” (Max-Planck-Gesellschaft zur Förderung der Wissenschaften …, priority 2013, dated 2014).
